Test results from paper PMC10265666, “Lung SPLUNC1 Peptide Derivatives in the Lipid Membrane Headgroup Kill Gram-Negative Planktonic and Biofilm Bacteria” (Biomacromolecules, 2023).
Several values for one entry are separate records, joined by “and”; a condition that tells them apart may be missing. Equal values may be shown once. No end group written: not given here.

Assays:
[1] = Circular dichroism secondary structure in G(−)IM ULVs; format: physicochemical; settings: 10 μM peptide, 15 mM PBS pH 7, 37 °C
Protocol: Unilamellar vesicles (ULVs) of ∼600 Å diameter were prepared using an Avanti extruder: 200 μL of 20 mg/ml G(−)IM lipid in 15 mM PBS was extruded 21 times through Nucleopore filters of size 500 Å using 0.2 mL Hamilton syringes in the Avanti extruder. The final concentration of G(−)IM lipid in the ULVs was determined gravimetrically to be 15 mg/ml. Concentrated ULVs were added to 3 mL of 10 μM peptide in 15 mM PBS at pH 7 to create lipid/peptide molar ratios between 0:1 and 70:1. The samples remained at room temperature for ∼16 h before the CD measurement. Data were collected in 3 mL quartz cuvettes using a Jasco 1500 CD spectrophotometer at 37 °C in the Center for Nucleic Acids Science and Technology at Carnegie Mellon University. The samples were scanned from 200 to 240 nm 20 times, and the ellipticity (ϵ) results were averaged. Temperature was controlled at 37 °C via a Peltier element and water circulation through the sample compartment. Nitrogen gas was used at a flow rate between 20 and 25 ft^3/h (CFH). The parameters for scanning were: speed 100 nm/min, step size 1.0 nm, response time 1 second, bandwidth 1 nm, and sensitivity of 20 mdeg. OriginPro 2019 (OriginLab, Northampton, MA) was used to carry out a linear least-squares fit of the smoothed ellipticity traces to four secondary structural motifs representing α-helix, β-sheet, β-turn, and random coil.[20] This analysis gives a percentage match of each of the secondary structural motifs to the total sample ellipticity. Data were finally converted to mean residue ellipticity, taking into account the peptide concentration (10 μMolar) and number of amino acids (N), using the equation: MRE = (10^4/N)ϵ deg cm^2/dmol.

[2] = Circular dichroism secondary structure in Euk33 ULVs; format: physicochemical; settings: 10 μM peptide, 15 mM PBS pH 7, 37 °C
[3] = system: HBE cells; format: cell-based
Protocol: (§1) page 4: Additional toxicity studies at 16 hours incubation with peptides Figure S3. Figure S4. […]

[4] = system: THP-1 cells; format: cell-based
Protocol: as §1

[5] = system: eukaryotic cells vs bacteria; experiment: Therapeutic index (eukaryotic cell kill concentration / bacterial kill concentration); format: cell-based
Protocol: But more important than cytotoxicity is the therapeutic index (TI), which is the concentration at which ≥90% of eukaryotic cells are killed divided by the concentration at which ≥90% of bacteria are killed. For A4-153, this TI value is an estimated ≈ 128 μM/16 μM ≈ 8. TI for A4-157 is an estimated 128 μM/24 μM ≈ 5, and the TI for A4-183 is an estimated 64 μM/20 μM ≈ 3.

[6] = G(−)IM/peptide molar ratio 10:1
[7] = G(−)IM/peptide molar ratio 15:1
[8] = G(−)IM/peptide molar ratio 20:1
[9] = G(−)IM/peptide molar ratio 25:1
[10] = G(−)IM/peptide molar ratio 30:1
[11] = G(−)IM/peptide molar ratio 50:1

Work on FKKFLKKFKGWLGGLWGK [A4-183] yielded a Random ([1]; G(−)IM/peptide molar ratio 0:1) of 65.9%, a α-helix ([1]; G(−)IM/peptide molar ratio 0:1) of 3.1% and a β-sheet ([1]; G(−)IM/peptide molar ratio 0:1) of 31.0%. For the same sequence, the β-turn ([1]; G(−)IM/peptide molar ratio 0:1) was 0%, the Random ([1]; G(−)IM/peptide molar ratio 1:1) was 64.1% and the α-helix ([1]; G(−)IM/peptide molar ratio 1:1) was 4.7%. For the same sequence, the β-sheet ([1]; G(−)IM/peptide molar ratio 1:1) was 31.2%, the β-turn ([1]; G(−)IM/peptide molar ratio 1:1) was 0% and the Random ([1]; G(−)IM/peptide molar ratio 5:1) was 59.2%. It also gave a α-helix ([1]; G(−)IM/peptide molar ratio 5:1) of 22.6%, a β-sheet ([1]; G(−)IM/peptide molar ratio 5:1) of 18.2% and a β-turn ([1]; G(−)IM/peptide molar ratio 5:1) of 0%. It also gave a Random [1, 6] of 29.1%, a α-helix [1, 6] of 44.4% and a β-sheet [1, 6] of 14.9%. The β-turn [1, 6] was 11.6%, the Random [1, 7] was 0.4% and the α-helix [1, 7] was 63.0%. It also gave a β-sheet [1, 7] of 14.1%, a β-turn [1, 7] of 22.5% and a Random [1, 8] of 12.4%. For the same sequence, the α-helix [1, 8] was 66.7%, the β-sheet [1, 8] was 8.8% and the β-turn [1, 8] was 12.1%. The Random [1, 9] was 11.7%, the α-helix [1, 9] was 64.9% and the β-sheet [1, 9] was 12.5%. It also gave a β-turn [1, 9] of 10.9%, a Random [1, 10] of 13.0% and a α-helix [1, 10] of 69.4%. For the same sequence, the β-sheet [1, 10] was 8.7%, the β-turn [1, 10] was 8.9% and the Random [1, 11] was 18.2%. It also gave a α-helix [1, 11] of 63.6%, a β-sheet [1, 11] of 9.1% and a β-turn [1, 11] of 9.1%. For the same sequence, the Random ([2]; Euk33/peptide molar ratio 0:1) was 65.9%, the α-helix ([2]; Euk33/peptide molar ratio 0:1) was 3.1% and the β-sheet ([2]; Euk33/peptide molar ratio 0:1) was 31.0%. It also gave a β-turn ([2]; Euk33/peptide molar ratio 0:1) of 0%, a Random ([2]; Euk33/peptide molar ratio 5:1) of 64.1% and a α-helix ([2]; Euk33/peptide molar ratio 5:1) of 8.6%. The β-sheet ([2]; Euk33/peptide molar ratio 5:1) was 27.3%, the β-turn ([2]; Euk33/peptide molar ratio 5:1) was 0% and the Random ([2]; Euk33/peptide molar ratio 10:1) was 67.8%. The α-helix ([2]; Euk33/peptide molar ratio 10:1) was 13.0%, the β-sheet ([2]; Euk33/peptide molar ratio 10:1) was 19.2% and the β-turn ([2]; Euk33/peptide molar ratio 10:1) was 0%. For the same sequence, the Random ([2]; Euk33/peptide molar ratio 20:1) was 61.2%, the α-helix ([2]; Euk33/peptide molar ratio 20:1) was 10.4% and the β-sheet ([2]; Euk33/peptide molar ratio 20:1) was 28.4%. The β-turn ([2]; Euk33/peptide molar ratio 20:1) was 0%, the Random ([2]; Euk33/peptide molar ratio 30:1) was 60.0% and the α-helix ([2]; Euk33/peptide molar ratio 30:1) was 13.6% and 14%. The β-sheet ([2]; Euk33/peptide molar ratio 30:1) was 26.4%, the β-turn ([2]; Euk33/peptide molar ratio 30:1) was 0% and the Random ([2]; Euk33/peptide molar ratio 70:1) was 37.4%. For the same sequence, the α-helix ([2]; Euk33/peptide molar ratio 70:1) was 12.2%, the β-sheet ([2]; Euk33/peptide molar ratio 70:1) was 50.4% and the β-turn ([2]; Euk33/peptide molar ratio 70:1) was 0%. For the same sequence, the “cytotoxicity” value [3] was “greatest cytotoxicity at high concentrations”, the “cytotoxicity” value [4] was “less toxic in THP-1 cells than in the other cell types” and the “concentration at which ≥90% of bacteria are killed” value ([5]; denominator of TI) was 20 µM. For the same sequence, the “concentration at which ≥90% of eukaryotic cells are killed (estimated)” value ([5]; numerator of TI) was about 64 µM.
